Data: patent publication US8617516B2, “Universal anchor peptide for nanoparticles” (Washington University, priority 2008, dated 2013)
“And” between values parts separate entries of the source, which are not always exact repeats. Equal values may be shown once.

How the values were obtained:
[1] = Surface plasmon resonance (Biacore X 100) binding of peptides on immobilized oil-based nanoparticles; settings: sensor chip L1, read-out: dissociation constant
Protocol: (§1) In order to evaluate whether linker peptide 1 (LP1) and linker peptide 2 (LP2) still retained high affinity on a lipid monolayer of the nanoparticles, surface plasmon resonance (SPR) studies were performed by using Biacore X 100 (Biacore Inc, Piscataway, N.J.). The binding kinetics and affinity of LP1 and LP2 on two type of nanoparticles were studied. One type was perfluorocarbon nanoparticles (e.g., perfluorooctylbromide, PFOB), the other type was oil-based (safflower core) nanoparticles. PBS (Ca^2+ and Mg^2+ free) was used as the running buffer. Nanoparticles were immobilized on Biacore sensor chip L1 by injecting nanoparticles at a flow rate of 1 μl/min for 30 minutes, followed by a running buffer wash at a flow rate of 100 μl/min for 50 seconds. Peptides in selected concentrations, prepared in running buffer, were then injected at a flow rate of 30 μl/min for 1 minute. At the end of each experiment, the sensor chip surface was regenerated by injection of 3-[(3-cholamidopropyl)dimethylammonio]-1-propanesulfonate (CHAPS) at a flow rate of 100 μl/min for 24 seconds.

[2] = Dissociation of loaded peptide from PFOB nanoparticles (tryptophan fluorescence of supernatant); assay type: physicochemical; settings: stored at 4° C., up to 70 hours after loading
Protocol: The dissociation of the peptide from linker peptide 1-loaded PFOB nanoparticles is depicted in FIG. 4. After being loaded with the linker peptide 1, the loaded PFOB nanoparticles were stored at 4° C. for 30 minutes, 1 hour, 2 hours, 4 hours, 22 hours, 46 hours, and 70 hours. The loaded nanoparticles were centrifuged at 100 g for 10 minutes, and the dissociated linker peptide 1 was measured by using tryptophan fluorescence after excitation at 280 nm in a fluorescent spectrofluorometer (Varian Inc, Palo Alto, Calif.).
FIG. 9 presents the dissociation of TCP1 or TCP2 from loaded PFOB nanoparticles as a function of time after loading. After loaded with TCP1 or TCP2, the PFOB nanoparticles were stored at 4° C. for 30 minutes, 1 hour, 2 hours, 4 hours, 22 hours, 46 hours, and 70 hours. The stored nanoparticles were then centrifuged at 100 g for 10 minutes and dissociated TCP1 or TCP2 was measured using tryptophan fluorescence after excitation at 280 nm in a fluorescent spectrofluorometer (Varian Inc, Palo Alto, Calif.).

[3] = system: 2F2B mouse endothelial cells; test: XTT cell viability assay (cytotoxicity of peptides); assay type: cell-based; settings: 2F2B cells; for IC50: 3 hours of treatment at 37° C., XTT
Protocol: For each peptide, cytotoxicity was assessed in 2F2B mouse endothelial cells by the XTT cell viability assay (Biotium, Hayward, Calif.). Cells were seeded in 96-well plates at 10,000 cells/well 24 hours before treatment with melittin and mutated melittins at selected concentrations. After 3 hours of treatment at 37° C., 25 μl of activated XTT solution was added to each well and incubated at 37° C. for 5 hours. After 5 hours of incubation, plates were gently shaken to achieve even dye distribution. The absorbances of the samples were measured by a microplate reader (Biorad, Model 550, Hercules, Calif.) at a wavelength of 450 nm. Background was subtracted and the results were normalized to untreated control cells.

[4] = Dynamic light scattering size and zeta potential of peptide-loaded PFOB/PFC nanoparticles; assay type: physicochemical; settings: for zeta potential: PFOB nanoparticles after incorporating the peptide (plain nanoparticles −17.62 mV); for average hydrodynamic diameter: PFOB nanoparticles with versus without inserted peptide
Protocol: (§2) The size distributions of the nanoparticles with or without the linker peptide were analyzed by dynamic light scattering (Brookhaven Instruments Corp., Holtsville, N.Y.). Zeta potential (ζ) values were determined with a Brookhaven Instruments PALS Zeta Potential Analyzer (Brookhaven Instruments Corp., Holtsville, N.Y.). Data were acquired in the phase-analysis light scattering (PALS) mode following solution equilibration at 25° C. […] This change further confirms the insertion of the linker peptide 1 into the PFOB nanoparticles. Furthermore, the structural integrity of linker peptide 1 inserted PFOB nanoparticles was confirmed by transmission electron microscopy.
The size distributions of the nanoparticles with or without cargo incorporated were analyzed by dynamic light scattering (Brookhaven Instruments Corp., Holtsville, N.Y.). The size distribution was plotted by particle number. Zeta potential (ζ) values were determined with a Brookhaven Instruments PALS Zeta Potential Analyzer (Brookhaven Instruments Corp., Holtsville, N.Y.). Data were acquired in the phase-analysis light scattering (PALS) mode following solution equilibration at 25° C.

[5] = Dynamic light scattering size and zeta potential of peptide-loaded liposomes; assay type: physicochemical
Protocol: as §2
The interactions between linker peptide 1 and liposomes are depicted in FIG. 6. […] This change further confirms that the linker peptide 1 inserted into the liposomes.

[6] = Surface plasmon resonance (Biacore X 100) binding of peptides on immobilized perfluorocarbon nanoparticles; settings: read-out: dissociation constant
Protocol: as §1
The binding kinetics of the resulting VCAM-targeting peptides (i.e., TCP1 and TCP2) on perfluorocarbon nanoparticles were examined using Biacore X 100. PBS (Ca^2+ and Mg^2+ free) was used as the running buffer. Nanoparticles were immobilized on Biacore sensor chip L1 by injecting nanoparticles at a flow rate of 1 μl/min for 30 minutes, followed by a running buffer wash at a flow rate of 100 μl/min for 50 seconds. Targeting peptide prepared at selected concentrations in running buffer was sequentially injected at a flow rate of 30 μl/min for 1 minute. At the end of each experiment, the sensor chip surface was regenerated by injection of 3-[(3-cholamidopropyl)dimethylammonio]-1-propanesulfonate (CHAPS) at a flow rate of 100 μl/min for 24 seconds. FIG. 8 presents selected sensorgrams at several different concentrations of the two VCAM-targeting peptides. The dissociation constant of TCP1 and TCP2 were 0.13 μM and 0.04 μM, respectively.

VCAM-1 = biological target: T1, VCAM-1 (Mus musculus, UniProt P29533); test: Specific binding of VCAM targeted nanoparticles by confocal microscopy; assay type: cell-based; settings: Alexa Fluor 488 labeled PFOB nanoparticles, TNF-α stimulated 2F2B cells, 1 hour
T1 construct: endogenous in cells; host or cells: 2F2B endothelial cells, TNF-α stimulated
T1 sequence (P29533 25-739): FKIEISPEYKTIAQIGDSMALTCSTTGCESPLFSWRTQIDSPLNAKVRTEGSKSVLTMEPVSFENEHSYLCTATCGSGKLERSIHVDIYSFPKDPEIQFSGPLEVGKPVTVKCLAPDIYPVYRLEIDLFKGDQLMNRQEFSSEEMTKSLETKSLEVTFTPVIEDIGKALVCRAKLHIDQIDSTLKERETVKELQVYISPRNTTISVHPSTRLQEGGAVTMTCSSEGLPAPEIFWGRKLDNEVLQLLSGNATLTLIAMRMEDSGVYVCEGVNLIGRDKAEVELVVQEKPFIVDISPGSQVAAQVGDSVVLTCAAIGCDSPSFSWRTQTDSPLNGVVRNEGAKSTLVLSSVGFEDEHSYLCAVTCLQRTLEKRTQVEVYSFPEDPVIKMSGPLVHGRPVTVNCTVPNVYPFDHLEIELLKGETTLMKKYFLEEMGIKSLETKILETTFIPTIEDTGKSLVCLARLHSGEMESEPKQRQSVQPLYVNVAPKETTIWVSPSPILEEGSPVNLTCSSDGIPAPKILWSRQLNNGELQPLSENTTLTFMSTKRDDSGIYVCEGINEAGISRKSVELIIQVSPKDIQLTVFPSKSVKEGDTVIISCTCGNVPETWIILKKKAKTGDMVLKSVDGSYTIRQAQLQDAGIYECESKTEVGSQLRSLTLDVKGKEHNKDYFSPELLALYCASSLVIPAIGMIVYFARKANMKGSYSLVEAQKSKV
Protocol: The specific binding of VCAM targeted nanoparticles was evaluated by confocal microscopy in 2F2B cells, which express VCAM-1 on the cell surface after TNF-α stimulation. Alexa Fluor 488 labeled PFOB nanoparticles comprising the VCAM-targeting peptide (TCP1 or TCP2) or nanoparticles themselves were incubated with TNF-α stimulated 2F2B cells in Delta T Culture dish at 37° C. for 1 hour, followed by five PBS washes. Cells were then fixed by incubation in 1 ml of 4% paraformaldehyde at 37° C. for 5 minutes. After fixation, the cells were washed with PBS for 5 times and the cells were visualized using a confocal microscope (Zeiss Meta 510, Thornwood, N.Y.) with standard filter sets. Concomitant differential interference contrast (DIC) imaging was used to determine the location of nanoparticles in the cells.

[7] = on perfluorocarbon nanoparticles, sensor chip L1
[8] = VCAM-targeting peptides on perfluorocarbon nanoparticles

CC[C@H](C)[C@H](NC(=O)[C@H](CC(C)C)NC(=O)[C@H](C)NC(=O)[C@@H]1CCCN1C(=O)[C@H](CC(C)C)NC(=O)CNC(=O)[C@@H](NC(=O)[C@@H](NC(=O)[C@H](CC(C)C)NC(=O)[C@@H](NC(C)=O)C(C)C)[C@@H](C)O)[C@@H](C)O)C(=O)N[C@@H](CO)C(=O)N[C@@H](Cc1c[nH]c2ccccc12)C(=O)N[C@H](C(=O)N[C@@H](CCCCN)C(=O)N[C@@H](CCCNC(=N)N)C(=O)N[C@@H](CCCCN)C(=O)N[C@@H](CCCNC(=N)N)C(=O)N[C@@H](CCC(N)=O)C(=O)N[C@@H](CCC(N)=O)C(N)=O)[C@@H](C)CC [Peptide P4, VLTTGLPALISWIKRKRQQ]
Kd [1]: 22.9 nM | loaded peptide dissociated from the PFOB nanoparticles [2]: < 10% | cytotoxicity among the modified peptides (FIG. 2) [3]: least cytotoxicity | IC50 [3]: 114000 nM and 115000 nM | decrease in cytotoxicity compared to MMLT ([3]; ratio of cytotoxicity index (IC50)): ~50 fold | cell toxicity ([3]; up to a concentration of 90 μM): essentially no cell toxicity | zeta potential [4]: +23.33 mV | average hydrodynamic diameter [4]: not affected | zeta potential ([5]; liposomes after incorporating the peptide (plain liposomes −36.73 mV)): −29.843 mV | average hydrodynamic diameter ([5]; liposomes with versus without inserted peptide): not affected | Kd [6, 7]: 225 nM

VHPKQHRggVLTTGLPALISWIKR [TCP2]
zeta potential [4]: 12.43 mV | average hydrodynamic diameter [4]: not affected | Kd [6, 8]: 40 nM

VLTTGLPALISWIKRggVHPKQHR [TCP1]
zeta potential [4]: 13.47 mV | average hydrodynamic diameter [4]: not affected | binding to cellular VCAM-1 (fluorescent signal) (VCAM-1): better binding | Kd [6, 8]: 130 nM

CC[C@H](C)[C@H](NC(=O)CNC(C)=O)C(=O)NCC(=O)N[C@@H](C)C(=O)N[C@H](C(=O)N[C@@H](CC(C)C)C(=O)N[C@@H](CCCCN)C(=O)N[C@H](C(=O)N[C@@H](CC(C)C)C(=O)N[C@H](C(=O)N[C@H](C(=O)NCC(=O)N[C@@H](CC(C)C)C(=O)N1CCC[C@H]1C(=O)N[C@@H](C)C(=O)N[C@@H](CC(C)C)C(=O)N[C@H](C(=O)N[C@@H](CO)C(=O)N[C@@H](Cc1c[nH]c2ccccc12)C(=O)N[C@H](C(=O)N[C@@H](CCCCN)C(=O)N[C@@H](CCCNC(=N)N)C(N)=O)[C@@H](C)CC)[C@@H](C)CC)[C@@H](C)O)[C@@H](C)O)C(C)C)C(C)C [Peptide P5]
IC50 [3]: 6410 ± 640 nM

CC[C@H](C)[C@H](NC(=O)CNC(C)=O)C(=O)NCC(=O)N[C@@H](C)C(=O)N[C@@H](Cc1c[nH]c2ccccc12)C(=O)N[C@@H](CC(C)C)C(=O)N[C@@H](CCCCN)C(=O)N[C@H](C(=O)N[C@@H](CC(C)C)C(=O)N[C@H](C(=O)N[C@H](C(=O)NCC(=O)N[C@@H](CC(C)C)C(=O)N1CCC[C@H]1C(=O)N[C@@H](C)C(=O)N[C@@H](CC(C)C)C(=O)N[C@H](C(=O)N[C@@H](CO)C(=O)N[C@@H](Cc1c[nH]c2ccccc12)C(=O)N[C@H](C(=O)N[C@@H](CCCCN)C(=O)N[C@@H](CCCNC(=N)N)C(=O)N[C@@H](CCCCN)C(=O)N[C@@H](CCCNC(=N)N)C(=O)N[C@@H](CCC(N)=O)C(=O)N[C@@H](CCC(N)=O)C(N)=O)[C@@H](C)CC)[C@@H](C)CC)[C@@H](C)O)[C@@H](C)O)C(C)C [Peptide P1]
IC50 [3]: 750 ± 40 nM

CC[C@H](C)[C@H](NC(=O)CNC(C)=O)C(=O)NCC(=O)N[C@@H](C)C(=O)N[C@H](C(=O)N[C@@H](CC(C)C)C(=O)N[C@@H](CCCCN)C(=O)N[C@H](C(=O)N[C@@H](CC(C)C)C(=O)N[C@H](C(=O)N[C@H](C(=O)NCC(=O)N[C@@H](CC(C)C)C(=O)N[C@@H](C)C(=O)N[C@@H](C)C(=O)N[C@@H](CC(C)C)C(=O)N[C@H](C(=O)N[C@@H](CO)C(=O)N[C@@H](Cc1c[nH]c2ccccc12)C(=O)N[C@H](C(=O)N[C@@H](CCCCN)C(=O)N[C@@H](CCCNC(=N)N)C(=O)N[C@@H](CCCCN)C(=O)N[C@@H](CCCNC(=N)N)C(=O)N[C@@H](CCC(N)=O)C(=O)N[C@@H](CCC(N)=O)C(N)=O)[C@@H](C)CC)[C@@H](C)CC)[C@@H](C)O)[C@@H](C)O)C(C)C)C(C)C [Peptide P2]
Kd [1]: 0.64 nM | cytotoxicity among the modified peptides (FIG. 2) [3]: least cytotoxicity | IC50 [3]: 26600 ± 560 nM | Kd [6, 7]: 5.48 nM

CC[C@H](C)[C@H](NC(=O)[C@H](CC(C)C)NC(=O)[C@H](C)NC(=O)[C@@H]1CCCN1C(=O)[C@H](CC(C)C)NC(=O)CNC(=O)[C@@H](NC(=O)[C@@H](NC(=O)[C@H](CC(C)C)NC(=O)[C@@H](NC(=O)[C@H](CCCCN)NC(=O)[C@H](CC(C)C)NC(=O)[C@@H](NC(C)=O)C(C)C)C(C)C)[C@@H](C)O)[C@@H](C)O)C(=O)N[C@@H](CO)C(=O)N[C@@H](Cc1c[nH]c2ccccc12)C(=O)N[C@H](C(=O)N[C@@H](CCCCN)C(=O)N[C@@H](CCCNC(=N)N)C(=O)N[C@@H](CCCCN)C(=O)N[C@@H](CCCNC(=N)N)C(=O)N[C@@H](CCC(N)=O)C(=O)N[C@@H](CCC(N)=O)C(N)=O)[C@@H](C)CC [Peptide P3]
IC50 [3]: 14400 ± 920 nM
